Legend:
[1] = tested on: CD4^+CD62L^+ naïve T cells; assay: In vitro induction of iTreg cells, FACS for FoxP3/CD25; type: cell-based, mouse; conditions: SJL naïve T cells, 10 ng/mL TGF-β and 50 U/mL IL-2; 0, 1, 5 or 10 μg/mL (control IgG 10 μg/ml)
Experimental: CD4^+CD62L^+ naïve T cells were first labeled with CFSE (5 μM) for 10 min at room temperature. The dye was quenched by the addition of 0.5 volumes of ice-cold fetal calf serum. The cells were incubated on ice for 5 min followed by centrifugation to collect the cell pellet. The cells were washed 2 more times in HL-1 culture media. The cells were then cultured in the presence of TGF-β (10 ng/mL) and IL-2 (10, 50, 100 U/mL) for 3 days before intracellular staining with anti-FoxP3 APC. FACS analysis was conducted to detect the FoxP3^+, in vitro expanded iTreg cells.
Therefore, it was next examined if B7-H4-Ig treatment of naïve CD4^+CD62L^+ T cells in the presence of inducible Treg (iTreg) cell-promoting conditions would results in an increase in the numbers of CD4^+CD25^+FoxP3^+ iTreg cells. First the in vitro iTreg induction culture conditions were optimized to allow for experimental conditions to assess what additional effect, if any, B7-H4-Ig has on iTreg induction. CD4^+ T cells were isolated from female SJL mice. Purified mouse CD4^+CD62L^+ T cells were first labeled with CSFE and induced to iTreg cells in the presence of TGF-β (10 ng/mL) and IL-2 at concentrations of 0, 50 or 100 U/mL. FACS analysis was performed 3 days later to detect FoxP3 expression and CFSE content. A FoxP3 positive and CFSE diluted cell population was detected when using 100 U/mL of IL-2 for iTreg differentiation. […]

[2] = tested on: naïve CD4^+CD62L^+ T cells; assay: In vitro Th2 polarization, proliferation; type: cell-based, mouse; conditions: Th2 conditions: IL-2, IL-4, anti-IL12 and anti-IFN-γ (FIG. 23)
From the text: B7-H4-Ig has no impact on Th2 cells using the same target, naïve CD4^+CD62L^+ T cells, under Th2 in vitro polarization conditions: IL-2, IL-4, anti-IL12 and anti-IFN-γ (FIG. 23).

[3] = tested on: naïve CD4^+CD62L^+ T cells (responder) with nTreg cells; assay: In vitro nTreg suppression assay; type: cell-based, mouse; parameters: CD4+ T cell activation and proliferation: dose or concentration left out as unconfirmed
From the text: Spleens and lymph nodes were harvested from 10 FoxP3-GFP mice on a B6 background. […] Naïve CD4^+ T cells were purified from the rest of the cells as described above. A total of 6.2×10^8 naïve CD4^+ T cells were collected. 5×10^7 cells were set aside to be effector T cells in the experiment. The remainder of the cells (5.7×10^8) were stained with anti-CD4 PE-Cy7, and the PE-Cy7^+/GFP^+ cells were sorted via MoFlo. A total of 4×10^6 nTreg (CD4^+/FoxP3^+) cells were collected from the MoFlo at 99% purity. […] The culture wells also received various ratios of nTreg cells: B7-H4-Ig. nTreg cells (CD4^+/CD62L^+/FoxP3-GFP^+) were isolated from B6/FoxP3-GFP mice by MoFLo sorting. Naïve GFP^− T cells CD4^+/CD62L^+/FoxP3-GFP^−) were used as responder cells. Increasing numbers of the nTreg cells were added to constant numbers of naïve CD4^+CD62L^+ T cells, irradiated splenocytic APCs, and anti-CD3 (FIG. 31). […]

Human T cells = assay: Quantitative RT-PCR of human T cells under Th17 differentiation cocktail; type: cell-based; conditions: 1 μg/mL, vs Synagis (FIG. 55)
Experimental: Human T cells were activated by anti-CD3 and anti-CD28 bound beads in the presence of Th17 differntiation cocktail (TGF-β1 (10 ng/mL), IL-6 (50 ng/mL), IL-23 (4 ng/mL), anti-IL-4 (10 μg/mL), anti-IFN-γ (5 μg/mL) and anti-IL-2 (5 μg/mL)). Cells were incubated with two different variants of B7-H4-Ig (1 μg/mL) identified as Q or L, or a humanized monoclonal IgG antibody directed against an epitope in the A antigenic site of the F protein of the Respiratory Syncytial Virus (Synagis), as an isotype control.

B7-H4-Ig: B7-H4 extracellular domain fused to Ig Fc; bare label is the human protein in Example 3, murine protein in Examples 1, 2, 5, 7-11
percentage of FoxP3+CD25+ iTregs [1]: increased the percentage of FoxP3^+CD25^+ iTregs in a dose-dependent manner
impact on Th2 cells (proliferation) [2]: no impact
anti-CD3 induced T cell activation ([3]; 1:0.12 and 1:0.25 ratios of T cell responder:nTreg, 5 or 10 μg/mL (FIG. 32)): completely blocked anti-CD3 induced T cell activation
CD4+ T cell activation and proliferation ([3]; absence of nTreg cells (ratio 1:0), 0, 1, 5, or 10, anti-CD3 (FIG. 32)): suppressed CD4^+ T cell activation and proliferation in a dose dependent manner
expression of mRNA involved in Th17 cell differentiation (RORc, IL-17A, IL-17F, IL-21, IL-22) (Human T cells): downregulates the expression of mRNA involved in Th17 cell differentiation
